Test results reported in patent publication US20190367558A1, “ANTIBODY/DRUG CONJUGATES AND METHODS OF USE” (ESPERANCE PHARMACEUTICALS, INC., priority 2012, published 2019).
Entries after “also recorded” stand apart in the source; their conditions may differ. Where two headings read alike, the source gives them in different places.

How the values were obtained:
Assay type in all cases: cell-based, human
[1] = tested on: Raji (CD20 positive Non-Hodgkin's lymphoma cells); experiment: Membrane integrity, Cytotox Glo luminometric assay (Example 12)
Method: (§1) Naked antibody anti-CD20-IgG1-Phor18 were chemically conjugated (MS4A and AT80), Mw app.158,000 g/mol at a concentrations of 0.34 mg/ml (MS4A-Phor18) and 0.76 mg/ml (AT-80-Phor18). Cell lines were obtained at the American Type Cell Collection (Mannassas, Va.). Human Non-Hodgkin's lymphoma cells Daudi (CD20 positive, passage number p2), Raji (CD20 positive p 2) and human leukemia cell line U937 (CD20 negative, p 10) were seeded at a density of 3,000 cells per well in opaque plates in heat inactivated full medium. After 24 hours cells were replenished with fresh media (75 μl) and incubated with 25 μl of a 4× serial dilution of MS4A1-Phor18 and AT80-Phor18 of 0.001, 0.01, 0.1, 1, 10, 100 and 500 nM (N=6). Cells incubated for 2-5 hours were assayed for membrane integrity using a luminometric assay kit (Promega, Madison, Wis., Cytotox Glo G9292 lot #301329). Cell viability was determined was determined after 24, and 48 hours using a luminescent assay kit (Promega, Madison, Wis., Cell Titer Glo, G 7572, lot 30068102).

[2] = tested on: U937 (CD20 negative leukemia cell line); experiment: Cell viability, Cell Titer Glo luminescent assay (Examples 12, 16, 19, 20, 22); conditions: for IC50, U937 (CD20 negative) 2-46 h: U937, 2-46 h (membrane integrity and viability time points), Example 12; for IC50, U937 2-48 h: Example 16
Method: as §1
(§2) The concentration of each naked antibody fragment and ADC was determined according to Bradford. Naked antibody scFv Mw 27,088 g/mol at a concentration of 0.3 mg/ml, minibody Mw 78,988 g/mol, 0.231 mg/ml; Phor 18 conjugated antibodies were scFv-Phor18 (Mw 29,349 g/mol, 0.9 mg/ml) and minibody-Phor18 (Mw 93,515, 0.48 mg/ml). Cell lines were obtained at the American Type Cell Collection (Mannassas, Va.). Human Non-Hodgkin's lymphoma cells Daudi (CD20 positive, passage number p8) and human leukemia cell line U937 (CD20 negative, p 16) were seeded at a density of 2,000 cells per well in opaque plates in heat inactivated full medium. After 24 hours cells were replenished with fresh media (75 μl) and incubated with 25 μl of a 4× serial dilution of scFv-Phor18 and minibody-Phor18 ADC and naked antibody fragment (scFv and minibody) prepared in cell culture media were added at concentrations of 0.0001, 0.001, 0.01, 0.1, 1, 10, 100, 200, and 500 nM (N=6). Cells incubated for 4 hours were assayed for membrane integrity using a luminometric assay kit (Promega, Madison, Wis., Cytotox Glo G9292 lot #301329). Cell viability was determined was determined after 24, 48 and 72 hours using a luminescent assay kit (Promega, Madison, Wis., Cell Titer Glo, G 7572, lot 30062102).
(§3) The concentration of each naked antibody fragment and ADC was determined spectrophotometrically (OD280). Naked antibody scFv-Fc Mw 52,562 g/mol at a concentration of 1.1 mg/ml, Phor 18 conjugated antibodies were Phor18-VL-scFvFc (Mw 54,685 g/mol, 1.0 mg/ml), scFv-Fc-CH3-Phor18 (Mw 54,685 g/mol, 0.8 mg/ml). Human Non-Hodgkin's lymphoma cells Daudi (CD20 positive, passage number p7) and human leukemia cell line U937 (CD20 negative, p 6) were seeded at a density of 2,000 cells per well in opaque plates in heat inactivated full medium using cell dissociation buffer. After 24 hours cells were replenished with fresh media (75 μl) and incubated and incubated with 25 μl of a 4× serial dilution of each ADC and naked antibody prepared in cell culture media were added at concentrations of 0.01, 0.1, 1, 10, 100, 200 and 500 nM for scFvFc, Phor18-VL-scFvFc and scFv-Fc-CH3-Phor18.
(§4) Cells incubated for 4 hours were assayed for membrane integrity using a luminometric assay kit (Promega, Madison, Wis., Cytotox Glo G9292 lot #26229601). Cell viability was determined was determined after 24 hours using a luminescent assay kit (Promega, Madison, Wis., Cell Titer Glo, G 7572, lot 30731602). Controls for 100% cell viability (culture media) and 100% cell death (0.1% Triton X 100) incubated under the same conditions.
Human Non-Hodgkin's lymphoma cells Daudi (CD20 positive, passage number p3) and human leukemia cell line U937 (CD20 negative, p 12) were seeded at a density of 2,000 cells per well in opaque plates in heat inactivated full medium using cell dissociation buffer. […]

[3] = tested on: Daudi (CD20 positive Non-Hodgkin's lymphoma cells); experiment: Membrane integrity, Cytotox Glo luminometric assay (Examples 12, 16, 19, 20, 22); conditions: membrane integrity
Method: as §1, §2
(§5) Controls for 100% cell viability (culture media) and 100% cell death (0.1% Triton X 100) incubated under the same conditions.
(§6) Data were processed and analyzed to obtain IC50 values using Graph Pad Prizm version 5.00 for Windows, GraphPad Software, San Diego Calif. USA, www-graphpad-com (Graph Pad Prizm, Inc). Statistical analysis for significance was determined by a two-tailed Student's T-test. Each test was conducted using 2 plates with 2-3 wells each to achieve an N of 4-6 data points per time point.
as §3
as §4, with “Controls for 100% cell viability (culture media) and 100% cell death (0.1% Triton X 100) incubated under the same conditions.” left out

[4] = tested on: Raji (CD20 positive Non-Hodgkin's lymphoma cells); experiment: Cell viability, Cell Titer Glo luminescent assay (Example 12)
Method: as §1

[5] = tested on: Daudi (CD20 positive Non-Hodgkin's lymphoma cells); experiment: Cell viability, Cell Titer Glo luminescent assay (Examples 12, 16, 19, 20, 22)
Method: as §1, §2, §5, §6, §3
as §4, with “Controls for 100% cell viability (culture media) and 100% cell death (0.1% Triton X 100) incubated under the same conditions.” left out

[6] = tested on: caspase 3/7 in Daudi cells (CD20 positive); experiment: Caspase 3/7 activation, Caspase Glo 3/7 luminometric assay (Examples 13, 17); conditions: 5 hours; scFv-Phor18 or scFv at 5 and 15 μg/ml; Staurosporine 10 μM = 100%; Daudi (Raji also seeded)
Method: Human Non-Hodgkin's lymphoma cells Daudi (CD20 positive, passage number p2), were seeded at a density of 3,000 cells per well in opaque plates in heat inactivated full medium. After 24 hours cells were fed with fresh media (75 μl) and incubated with AT80-Phor18 (0.76 mg/ml) or naked antibody AT-80 of 15 and 75 μg/ml (100 and 500 nM) (N=6). Staurosporine at 10 μM served as positive control for caspase 3/7 activation. After 5 hours of incubatin cultures were assayed for caspase 3/7 levels using a luminometric assay kit (Promega, Madison, Wis., Caspase Glo 3/7 G811C lot #28731802).
Caspase 3/7 activation was calculated from relative light units from luminometric signals. Staurosporine was set at 100% caspase 3/7 activation, cell suspension alone without additions of reagents served as 0% caspase levels.
In in vitro studies, caspase activation of recombinantly expressed CD20 targeting scFv-Phor18 conjugate with “naked” antibody (scFv) in CD20 positive cells (Daudi Burkitt's lymphoma) was compared. Human Non-Hodgkin's lymphoma cells Daudi (CD20 positive, p 5) and Raji (CD20 positive, passage number p 3), were seeded at a density of 3,000 cells per well in opaque plates in heat inactivated full medium. […]
Relative caspase 3/7 activation was calculated from relative light units from luminometric signals. […]

[7] = Example 12, listed as MS4A1-Phor18
[8] = 46 h (text: 48 h / 46 hours), Example 16

## Anti-CD20-Phor18 (MS4A1)
[1]; 2 h
  IC50, Raji 2 h: not active
[1]; 5 h
  IC50, Raji 5 h: not active
[2]
  IC50, U937 (CD20 negative) 2-46 h: Not toxic
[3]; Example 12
  IC50, Daudi 2 h: Not toxic
  IC50, Daudi 5 h: Not toxic
[3]; [7]
  IC50, Daudi 2 h: not active
  IC50, Daudi 5 h: not active
[4]; 24 h, listed as MS4A1-Phor18, read-out: IC50, Raji 24 h
  IC50: 267 ± 13 nM
[4]; 24 h, read-out: IC50, Raji 24 h
  IC50: 267 ± 13 nM
[4]; 46 h (text: 48 h), read-out: IC50, Raji 46 h
  IC50: 227 ± 11 nM
[5]; 24 h, Example 12, read-out: IC50, Daudi 24 h
  IC50: 10.6 ± 2.1 nM
[5]; 46 h (text: 48 h), Example 12, read-out: IC50, Daudi 46 h
  IC50: 3 ± 1.2 nM

## Anti-CD20 MS4A1: naked anti-CD20 antibody MS4A1 (Rituximab Like, R&D) [reference compound]
[2]
  IC50, U937 (CD20 negative) 2-46 h: Not toxic
[3]; Example 12
  IC50, Daudi 2 h: Not toxic
  IC50, Daudi 5 h: Not toxic
[4]; 24 h
  IC50, Raji 24 h: Not toxic
[4]; 46 h (text: 48 h)
  IC50, Raji 46 h: Not toxic
[5]; 24 h, Example 12
  IC50, Daudi 24 h: Not toxic
[5]; 46 h (text: 48 h), Example 12
  IC50, Daudi 46 h: Not toxic

B1: scFv: naked single chain Fv anti-CD20 fragment with Rituxan CDRs, E. coli, SEQ ID NO.:92 (protein)
scFv: HHHHHHDIQLTQSPAILSASPGEKVTMTCRASSSVSYIHWFQQKPGSSPKPWIYATSNLASGVPVRFSGSGSGTSYSLTISRVEAEDAATYYCQQWTSNPPTFGGGTKLEIGSTSGGGSGGGSGGGGSSVQLQQPGAELVKPGASVKMSCKASGYTFTSYNMHWVKQTPGRGLEWIGAIYPGNGDTSYNQKFKGKATLTADKSSSTAYMQLSSLTSEDSAVYYCARSTYYGGDWYFDVWGQGTTVTVSS
[6]
  Caspase 3/7 levels compared to Staurosporine: did not detectably activate caspases
[2]
  IC50, U937 2-48 h: not killed; also recorded: Not toxic
[3]; E. coli expressed, Example 16
  IC50, Daudi 2 h: Not toxic
  IC50, Daudi 5 h: Not toxic
[5]; 24 h, Example 16
  IC50, Daudi 24 h: Not toxic
[5]; [8]
  IC50, Daudi 46 h: Not toxic

B2: Fv-CH3-CH3-Fv: naked bivalent anti-CD20 minibody, E. coli, SEQ ID NO.:94 (protein)
chain: DIQLTQSPAILSASPGEKVTMTCRASSSVSYIHWFQQKPGSSPKPWIYATSNLASGVPVRFSGSGSGTSYSLTISRVEAEDAATYYCQQWTSNPPTFGGGTKLEIGSTSGGGSGGGSGGGGSSVQLQQPGAELVKPGASVKMSCKASGYTFTSYNMHWVKQTPGRGLEWIGAIYPGNGDTSYNQKFKGKATLTADKSSSTAYMQLSSLTSEDSAVYYCARSTYYGGDWYFDVWGQGTTVTVSSGQPREPQVYTLPPSRDELTKNQVSLTCLVKGFYPSDIAVEWESNGQPENNYKTTPPVLDSDGSFFLYSKLTVDKSRWQQGNVFSCSVMHEALHNHYTQKSLSLSPGKGSTSGGGSGGGSGGGGSSGQPREPQVYTLPPSRDELTKNQVSLTCLVKGFYPSDIAVEWESNGQPENNYKTTPPVLDSDGSFFLYSKLTVDKSRWQQGNVFSCSVMHEALHNHYTQKSLSLSPGKVQLQQPGAELVKPGASVKMSCKASGYTFTSYNMHWVKQTPGRGLEWIGAIYPGNGDTSYNQKFKGKATLTADKSSSTAYMQLSSLTSEDSAVYYCARSTYYGGDWYFDVWGQGTTVTVSSGSTSGGGSGGGSGGGGSSDIQLTQSPAILSASPGEKVTMTCRASSSVSYIHWFQQKPGSSPKPWIYATSNLASGVPVFSGSGSGTSYSLTISRVEAEDAATYYCQQWTSNPPTFGGGTKLEI
[2]
  IC50, U937 2-48 h: Not toxic
[5]; 24 h, Example 16
  IC50, Daudi 24 h: Not toxic
[5]; [8]
  IC50, Daudi 46 h: Not toxic
